# Measurements from US12509467B2 (Hoffmann-La Roche Inc., priority 2020, dated 2025).
# Read-outs that look alike come from different tables or passages of the source.
# Biological target: T1, human cGAS (residues 161-522) (Homo sapiens, UniProt Q8N884)
# T1 construct: Recombinantly expressed purified human cGAS (residues 161-522) was used at 25 nM; made in house
# Experiment: cGAS Activity Assay—Malachite Green
# Format: biochemical
# Protocol: Compounds were tested for cGAS inhibition in a coupled enzymatic assay based on Phosphate detection by Malachite Green. Final assay conditions were 20 mM TRIS pH 7.5 (Applichem), 5 mM MgCl2 (Sigma) and 0.01% BSA (Sigma) supplemented with 80 μM ATP (Sigma), 80 μM GTP (Sigma) and 100 nM Interferon Stimulating DNA (ISD) (Microsynth).
# 1 μL of DMSO dilution series was transferred to 32.3 μL reaction buffer, mixed by pipetting up/down, spun for 1 minute at 3000 rpm and was visually inspected for precipitation. 5 μL of 3-fold enzyme stock solution were transferred to an empty 384-well Black/Clear Flat Bottom Polystyrene NBS (Corning) rows 3-24. Rows 1-2 were filled with assay buffer. Plates were spun 10 seconds at 1000 rpm (164×g). 5 μL of compound intermediate dilution was added and mixed by pipetting up/down to rows 3-24. Rows 1-2 were filled with 3.1% DMSO assay buffer. Plates were spun 10 seconds at 1000 rpm (164×g). 5 μL 3-fold Nucleotide/DNA mix was added to all wells to start the reaction. Plates were spun 10 seconds at 1000 rpm (164×g) and incubated for 4 hour at room temperature (RT) in the dark. 5 μL 4 U/mL PPase (Sigma) were added to all wells. Plates spun 10 seconds at 1000 rpm (164×g). 10 μL BioMol green Solution (Enzo Life Sciences) was added to all wells. Plates spun 10 seconds at 1000 rpm (164×g) and incubated 30 minutes at RT in the dark. Absorbance data was collected 620 nm on an EnVision Multilable Reader (Perkin Elmer) and the following measurement settings were used: excitation filter photometric was 620 nm; excitation from the top; measurement height was 1 mm; number of flashes was 30; number of flashes integrated was 1.
# All plates are checked for abnormalities and outliers in the Blank Control (no protein, row 1) and the Neutral Control (no compound, row 2) are excluded using the 3*SD rule.
# Table 5 provides IC50 values (μM) for cGAS inhibition obtained for particular examples of the present invention as measured by the above-described assay.
# [1] = cGAS inhibition, 25 nM cGAS, 80 μM ATP, 80 μM GTP, 100 nM ISD, 4 hour at RT, Malachite Green phosphate detection, read-out: IC50 cGAS
# T1 sequence (Q8N884 161-522): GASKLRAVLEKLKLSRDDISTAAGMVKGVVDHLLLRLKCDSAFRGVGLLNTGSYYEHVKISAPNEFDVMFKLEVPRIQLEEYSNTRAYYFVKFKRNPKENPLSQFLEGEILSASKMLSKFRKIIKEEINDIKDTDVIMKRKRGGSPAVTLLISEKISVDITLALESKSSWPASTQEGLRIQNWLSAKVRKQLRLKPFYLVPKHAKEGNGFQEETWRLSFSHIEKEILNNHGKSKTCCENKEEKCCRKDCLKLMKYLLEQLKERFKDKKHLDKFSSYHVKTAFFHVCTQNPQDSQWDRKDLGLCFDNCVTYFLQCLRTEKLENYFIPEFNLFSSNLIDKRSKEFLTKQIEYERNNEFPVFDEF
Compound,IC50 [1] [nM],IC50 [nM]
"CCCc1cc(=O)n2nc(NCc3ccc(C#N)cc3Cl)nc2[nH]1 [Example 7, 3-chloro-4-[[(7-oxo-5-propyl-4H-[1,2,4]triazolo[1,5-a]-pyrimidin-2-yl)amino]methyl]-benzonitrile]",2420,–
CCCc1cc(=O)n2nc(NCc3ccc(Cl)cc3F)nc2[nH]1 [Example 62],–,4040
O=c1cc(CC2CCC2)[nH]c2nc(NCc3ccc(Cl)cc3Cl)nn12 [Example 65],1590,–
"CCCc1cc(=O)n2nc(NCc3ccc(N4CCOCC4)cc3Cl)nc2[nH]1 [Example 41, 2-[(2-chloro-4-morpholino-phenyl)methylamino]-5-propyl-4H-[1,2,4]triazolo[1,5-a]-pyrimidin-7-one]",701,–
"CCCc1cc(=O)n2nc(NCc3ccc(-c4ccn(C)n4)cc3)nc2[nH]1 [Example 14, 2-[[4-(1-methylpyrazol-3-yl)-phenyl]methylamino]-5-propyl-4H-[1,2,4]triazolo[1,5-a]-pyrimidin-7-one]",4920,–
CCCc1cc(=O)n2nc(NCc3ccc(OCc4ccccc4)cc3Cl)nc2[nH]1 [Example 15],–,4000
"CCCc1cc(=O)n2nc(NCc3ccc(OC(C)C)cc3)nc2[nH]1 [Example 53, 2-[(4-propan-2-yloxyphenyl)-methylamino]-5-propyl-4H-[1,2,4]triazolo[1,5-a]pyrimidin-7-one]",2660,–
"CCCc1cc(=O)n2nc(NCc3cc(-n4cnc(C)c4)ccc3Cl)nc2[nH]1 [Example 88, 2-[[2-Chloro-5-(4-methylimidazol-1-yl)phenyl]methylamino]-5-propyl-4H-[1,24]triazolo[1,5-a]pyrimidin-7-one]",484,–
"CCCc1cc(=O)n2nc(NCc3cccc(-c4ccccc4)c3)nc2[nH]1 [Example 16, 2-[(3-phenylphenyl)methyl-amino]-5-propyl-4H-[1,2,4]-triazolo[1,5-a]pyrimidin-7-one]",2560,–
"CCCc1cc(=O)n2nc(NCc3cc(Nc4nccs4)ccc3Cl)nc2[nH]1 [Example 89, 2-[[2-chloro-5-(thiazol-2-ylamino)phenyl]methylamino]-5-propyl-4H-[1,2,4]triazolo[1,5-a]pyrimidin-7-one]",492,–
"Cc1cc(=O)n2nc(NCc3cc(-c4ccn(C)n4)ccc3Cl)nc2[nH]1 [Example 34, 2-[[2-chloro-5-(1-methylpyrazol-3-yl)phenyl]methylamino]-5-methyl-4H-[1,2,4]triazolo[1,5-a]-pyrimidin-7-one]",2110,–
"Cn1ccc(-c2ccc(CNc3nc4[nH]c(C(F)(F)F)cc(=O)n4n3)cc2)n1 [Example 18, 2-[[4-(1-methylpyrazol-3-yl)-phenyl]methylamino]-5-(trifluoromethyl)-4H-[1,2,4]-triazolo[1,5-a]pyrimidin-7-one]",2820,–
"CCCCc1cc(=O)n2nc(NCc3cc(C4CC4)on3)nc2[nH]1 [Example 49, 5-butyl-2-[(5-cyclopropylisox-azol-3-yl)methylamino]-4H-[1,2,4]triazolo[1,5-a]pyrimidin-7-one]",4660,–
"CCCc1cc(=O)n2nc(NC(C)c3ccc(-c4ccccc4)cc3)nc2[nH]1 (stereo not drawn) [Example 56, 2-[1-(4-phenylphenyl)ethyl-amino]-5-propyl-4H-[1,2,4]-triazolo[1,5-a]pyrimidin-7-one]",–,2870
"O=c1cc(C(F)(F)F)[nH]c2nc(NCc3ccc(Cl)cc3Cl)nn12 [Example 60, 2-[(2,4-dichlorophenyl)methyl-amino]-5-(trifluoromethyl)-4H-[1,2,4]triazolo[1,5-a]-pyrimidin-7-one]",1250,–
"O=c1cc(CCc2ccccc2)[nH]c2nc(NCc3ccc(Cl)cc3Cl)nn12 [Example 72, 2-[(2,4-dichlorophenyl)meth-ylamino]-5-(2-phenylethyl)-4H-[1,2,4]triazolo[1,5-a]-pyrimidin-7-one]",–,2110
"O=c1cc(CNc2ccccc2F)[nH]c2nc(NCc3ccccc3Cl)nn12 [Example 80, 2-[(2-Chlorophenyl)methylamino]-5-1(2-fluoroanilino)methyl1-4H-11,2,41triazolo[1,5-a]pyrimidin-7-one]",1920,–

Compound,IC50 [1] [nM],IC50 [nM]
"CCCc1cc(=O)n2nc(NCc3ccc(Cl)cc3C)nc2[nH]1 [Example 66, 2-[(4-chloro-2-methylphenyl)-methylamino]-5-propyl-4H-[1,2,4]triazolo[1,5-a]pyrimidin-7-one]",9280,–
"Cn1ccc(-c2ccc(Cl)c(CNc3nc4[nH]c(CCc5ccccc5)cc(=O)n4n3)c2)n1 [Example 26, 2-[[2-chloro-5-(1-methylpyrazol-3-yl)phenyl]methylamino]-5-(2-phenylethyl)-4H-[1,2,4]-triazolo[1,5-a]pyrimidin-7-one]",–,1600
"Cn1ccc(-c2ccc(Cl)c(CNc3nc4[nH]c(CCCC(F)F)cc(=O)n4n3)c2)n1 [Example 50, 2-[[2-chloro-5-(1-methylpyrazol-3-yl)phenyl]methylamino]-5-(4,4-difluorobutyl)-4H-[1,2,4]-triazolo[1,5-a]pyrimidin-7-one]",263,–
"CCCc1cc(=O)n2nc(NCc3ccc(OC)cc3Cl)nc2[nH]1 [Example 69, 2-[(2-chloro-4-methoxyphen-yl)methylamino]-5-propyl-4H-[1,2,4]triazolo[1,5-a]pyrimidin-7-one]",9510,–
"CCCCc1cc(=O)n2nc(NCc3cc(-c4ccncn4)ccc3Cl)nc2[nH]1 [Example 86, 5-Butyl-2-[(2-chloro-5-pyrimidin-4-yl-phenyl)methylamino]-4H-[1,2,4]triazolo [1,5-a]pyrimidin-7-one]",79,–
"CCCc1cc(=O)n2nc(NCc3ccc(C(C)C)cc3)nc2[nH]1 [Example 55, 2-[(4-propan-2-ylphenyl)meth-ylamino]-5-propyl-4H-[1,2,4]-triazolo[1,5-a]pyrimidin-7-one]",–,1590
"CCCc1cc(=O)n2nc(NCc3cc(-c4cccnc4)ccc3Cl)nc2[nH]1 [Example 21, 2-[[2-chloro-5-(3-pyridyl)phen-yl]-methylamino]-5-propyl-4H-[1,2,4]triazolo[1,5-a]pyrimidin-7-one]",–,744
"CCCCc1cc(=O)n2nc(NCc3cc(N4CC5(COC5)C4)ncc3Cl)nc2[nH]1 [Example 97, 5-Butyl-2-[[5-chloro-2-(2-oxa-6-azaspiro[3.3]heptan-6-yl)-4-pyridyl]methylamino]-4H-[1,2,4]triazolo[1,5-a]pyrimidin-7-one]",–,128
"CCCc1cc(=O)n2nc(NCc3cccc(-c4ccn(C)n4)c3)nc2[nH]1 [Example 13, 2-[[3-(1-methylpyrazol-3-yl)-phenyl]methylamino]-5-propyl-4H-[1,2,4]triazolo[1,5-a]-pyrimidin-7-one]",–,1940
"CCCc1cc(=O)n2nc(NCc3cc(-c4ccncn4)ccc3Cl)nc2[nH]1 [Example 38, 2-[(2-chloro-5-pyrimidin-4-yl-phenyl)methylamino]-5-propyl-4H-[1,2,4]triazolo[1,5-a]-pyrimidin-7-one]",277,–
"CCCCc1cc(=O)n2nc(NCc3cc(-c4ccn(C)n4)ccc3Cl)nc2[nH]1 [Example 32, 5-butyl-2-[[2-chloro-5-(1-methyl-pyrazol-3-yl)phenyl]methyl-amino]-4H-[1,2,4]triazolo[1,5-a]pyrimidin-7-one]",162,–
"CCCc1cc(=O)n2nc(NCc3cc(-c4cnn(C)c4)ccc3Cl)nc2[nH]1 [Example 24, 2-[[2-chloro-5-(1-methylpyrazol-4-yl)phenyl]methylamino]-5-propyl-4H-[1,2,4]triazolo[1,5-a]pyrimidin-7-one]",401,–
"CCCCc1cc(=O)n2nc(NCc3cc(-c4ccccc4)on3)nc2[nH]1 [Example 46, 5-butyl-2-[(5-phenylisoxazol-3-yl)methylamino]-4H-[1,2,4]-triazolo[1,5-a]pyrimidin-7-one-5-butyl-2-[(5-phenylisoxazol-3-yl)methylamino]-4H-[1,2,4]-triazolo[1,5-a]pyrimidin-7-one]",805,–
"COCCCc1cc(=O)n2nc(NCc3cc(-c4ccn(C)n4)ccc3Cl)nc2[nH]1 [Example 48, 2-[[2-chloro-5-(1-methylpyrazol-3-yl)phenyl]methylamino]-5-(3-methoxypropyl)-4H-[1,2,4]-triazolo[1,5-a]pyrimidin-7-one]",603,–
"CCCc1cc(=O)n2nc(NCc3nc4ccccc4o3)nc2[nH]1 [Example 74, 2-(1,3-benzoxazol-2-ylmethyl-amino)-5-propyl-4H-[1,2,4]-triazolo[1,5-a]pyrimidin-7-one]",4560,–
"CCCCc1cc(=O)n2nc(NCc3ccc(Cl)cc3Cl)nc2[nH]1 [Example 35, 5-butyl-2-[(2,4-dichlorophen-yl)methylamino]-4H-[1,2,4]-triazolo-[1,5-a]pyrimidin-7-one]",–,1320
